For series [1], the system named is C5a-stimulated neutrophile. Put plainly: Migrating ability of C5a-stimulated neutrophile. In kind it is cell-based. The note with it: 1.5 h; human neutrophile, C5a 100 pmol/L, chemotaxicell, 90 min; read-out: IC50 value, inhibition of migration of C5a-stimulated neutrophile. The protocol:
A neutrophile fraction was separately taken from human peripheral venous blood using Lympholyte-poly (Cedarlane) and suspended in RPMI 1640 medium (GIBCO BRL) supplemented with 0.1% bovine serum albumin (BSA). To this neutrophile fraction (5×10^6 cells/mL) was added Calcein-AM (final concentration 5 μM, FUNAKOSHI), and the mixture was incubated at 37° C. for 30 min. The cells were washed by centrifugation and suspended to a concentration of 1×10^6 cells/mL. The migration was evaluated by adding neutrophiles to chemotaxicell (pore size: 3 μm, KURABO) and measuring the neutrophiles that migrated outside the chemotaxicell. First, 100 pmol/L of C5a solution was added to 24 well plate (500 μL/well) and chemotaxicell was set in the well. […] The fluorescent intensity of each well was measured by Cyto Fluor II (Ex: 485, Em: 530). The rate (% inhibition) of the inhibition of migration of C5a-stimulated neutrophile by the test compound was calculated by the following formula, wherein the fluorescence intensity of neutrophile that migrated by C5a stimulation without addition of the test compound is Max, the fluorescent intensity of neutrophile that migrated without addition of test compound and without C5a stimulation is Min, and the fluorescent intensity of neutrophile that migrated by C5a stimulation with the addition of the test compound is Test. % inhibition=100−[(Test−Min)/(Max−Min)]×100 […]

The test system of series [2] is C5a stimulated neutrophile. The series can be described thus: Production of reactive oxygen species in C5a-stimulated neutrophile. The settings on record: human neutrophile, C5a 3 nmol/L, luminol luminescence; read-out: IC50 value, inhibition of production of reactive oxygen species in C5a stimulated neutrophile. It is filed as cell-based. The protocol: A neutrophile fraction was separately taken from human peripheral venous blood using Lympholyte-poly (Cedarlane), and suspended in Hank's Balanced Salt Solution (HBSS, GIBCO BRL) containing 1% fetal bovine serum (FBS) and 1 mmol/L of luminol (Wako Pure Chemical Industries, Ltd.). Reactive oxygen species was measured using a luminometer (MicroLumat, Berthold) for 96 well plate. That is, 1×10^5 cells/150 μL of neutrophile suspension and 25 μL of a test compound solution were added to a well, which was set in a MicroLumat set for 37° C. and stood for about 5 min. Then, 25 μL of C5a (final concentration 3 nmol/L) was added and luminescence produced by the reaction of the luminol and the reactive oxygen species was measured with the lapse of time for 15 min. The rate (% inhibition) of inhibition of the production of reactive oxygen species in C5a stimulated neutrophile by the test compound was calculated by the following formula, wherein the peak value of the production of reactive oxygen species derived by C5a without addition of the test compound is Max, the peak value of the production of reactive oxygen species without addition of the test compound and without C5a stimulation is Min, and the peak value of the production of reactive oxygen species derived by C5a with the addition of the test compound is Test. % inhibition=100−[(Test−Min)/(Max−Min)]×100 […]

Series [3] relates to C5a stimulated neutrophile. Put plainly: Action on increase of intracellular Ca2+ concentration of C5a stimulated neutrophile. It is filed as cell-based, human. As to the method:
A neutrophile fraction was separately taken from human peripheral venous blood using Lympholyte-poly (Cedarlane), and suspended in Hank's Balanced Salt Solution (HBSS, GIBCO BRL) supplemented with 1% fetal bovine serum (FBS). Then, Fura 2-AM (final concentration 5 μM, DOJINDO) was added to the neutrophile fraction (5×10^6 cells/mL), and the mixture was incubated at 37° C. for 40 min. The cells were washed by centrifugation and suspended to the concentration of 1×10^6 cells/mL. The intracellular Ca^2+ concentration was measured using a spectrophotofluorometer (CAF-110, JASCO Corporation), and calculated from the ratio (Ex340 value/Ex380 value) of fluorescent intensities at 500 nm upon excitation at 340 nm and 380 nm, the former being Ex340 value, the latter being Ex380 value. […] Then, Triton X-100 (final concentration 0.2%) was added and the cells were dissolved, and, sb2 value, which was the Ex 340 value then, and Rmax value, which was the Ex340 value/Ex380 value then, was measured. Then, EGTA (final concentration 3 mmol/L) was added and sf2 value, which was the Ex340 value then, and Rmin value, which was the Ex340/Ex380 value then, was measured. From these measurement results, the intracellular Ca^2+ concentration was calculated from the following formula. […]

In series [4] the target is T1, C5a receptor (Homo sapiens, UniProt P21730).
T1 construct: U-937 cell was stimulated with 1 mM dibutyryl cyclic AMP (dcAMP, SIGMA) for 2 days to express the C5a receptor; endogenous in cells; host or cells: U-937 cells (human histiocytic lymphoma line) differentiated with 1 mM dibutyryl cAMP for 2 days
T1 sequence (P21730 1-350): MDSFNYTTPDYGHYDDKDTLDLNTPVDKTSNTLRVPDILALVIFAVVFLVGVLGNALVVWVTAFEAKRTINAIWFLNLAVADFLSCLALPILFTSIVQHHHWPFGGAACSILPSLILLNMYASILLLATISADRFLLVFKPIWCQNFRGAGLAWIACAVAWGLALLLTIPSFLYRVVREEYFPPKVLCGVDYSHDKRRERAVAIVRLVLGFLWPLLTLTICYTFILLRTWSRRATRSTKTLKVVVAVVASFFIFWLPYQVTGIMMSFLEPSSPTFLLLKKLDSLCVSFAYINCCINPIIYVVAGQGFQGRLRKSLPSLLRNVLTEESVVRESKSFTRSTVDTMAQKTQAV
Put plainly: C5a receptor binding assay ([125I]-human C5a, dcAMP-U-937 cells). The settings on record: dcAMP-U-937 cell, [125I]-C5a 200 pM, 4° C. for 2 hr; read-out: IC50 value, concentration at which binding of [125I]-human C5a is inhibited by 50%. As to the method: The C5a receptor binding inhibitory action of C5a and the test compound was evaluated by a receptor binding assay comprising reacting human cell line U-937 (human histiocytic lymphoma line), which expresses the C5a receptor, with [^125I]-human C5a (Amersham Pharmacia Biotech) in a MultiScreen (MILLIPORE). First, U-937 cell was stimulated with 1 mM dibutyryl cyclic AMP (dcAMP, SIGMA) for 2 days to express the C5a receptor (dcAMP-U-937 cell), and suspended in a binding buffer [50 mM HEPES, 1 mM CaCl2, 5 mM MgCl2, 0.5% bovine serum albumin (BSA, SIGMA), 0.02% NaN3 (pH 7.2)] and stored at −80° C. The binding assay was started by the addition of 50 μL of dcAMP-U-937 cell suspension dissolved immediately before use, 25 μL of a binding buffer or a test compound solution, and 25 μL of [^125I]-C5a solution (final concentration 200 pM), to each well of the MultiScreen. […] After drying the MultiScreen, the radioactivity on the filter was measured using a gamma counter. The rate (% inhibition) of inhibition of C5a binding by the test compound was calculated by the following formula using the count value obtained without addition of the test compound as Total, the count value obtained with addition of non-labeled C5a as Non, and the count value obtained with addition of the test compound as Test. % Inhibition=100−[(Test−Non)/(Total−Non)]×100 […]

For series [5], the system named is C5a-Induced Decrease in Neutrophile in Cynomolgus Monkey. Put plainly: C5a-induced decrease in neutrophile in cynomolgus monkey. The settings on record: 30 mg/kg orally, human C5a administered 4 hr later. It is filed as in vivo. As to the method: The action of the test compound on the decrease of neutrophile in peripheral blood, that occurs temporarily upon intravenous administration of human C5a to cynomolgus monkey, was evaluated. That is, the test compound was orally administered to cynomolgus monkey, and 4 hr later, human C5a was administered. The neutrophiles in peripheral blood were counted 2 min before and 1 min after administration of human C5a, and the rate (%) of decrease in neutrophiles in peripheral blood was calculated by the following formula. decrease rate (%)=100−[(neutrophiles in peripheral blood 1 min after administration of human C5a)/(neutrophiles in peripheral blood 2 min before administration of human C5a)]×100
Using the following formula, moreover, the inhibition rate (% inhibition) of decrease in neutrophiles in peripheral blood by the test compound was calculated. % inhibition=100−[(Test−Min)/(Max−Min)]×100 • Test: decrease rate of neutrophiles in peripheral blood when test compound and human C5a were administered • Min: decrease rate of neutrophiles in peripheral blood upon administration of administration medium for test compound and administration medium for human C5a • Max: decrease rate of neutrophiles in peripheral blood upon administration of administration medium for test compound and human C5a

Structures are written as SMILES. Structures can show the parent of a compound that is named as a salt.

One may read the melting point as the temperature, or range, at which the solid turns liquid.

`CC(C)c1ccc(N(Cc2cnn(Cc3ccc(C(F)(F)F)cc3)c2)C(=O)Nc2c(C(C)C)cccc2C(C)C)cc1` [Example 61, N′-(2,6-diisopropylphenyl)-N-(4-isopropylphenyl)-N-{[1-(4-trifluoromethylbenzyl)pyrazol-4-yl]methyl}urea]: the melting point lay within 134 to 135 °C.

As to `CC(C)c1ccc(N(Cc2ccc(N(C)C)cc2)C(=O)Nc2c(C(C)C)cccc2C(C)C)cc1` [Example 34, N′-(2,6-diisopropylphenyl)-N-[(4-dimethylaminophenyl)methyl]-N-(4-isopropylphenyl)urea 9/10 fumarate], the IC50 in series [1] turned out to be 100 nM; in series [2], 10 nM; in series [3] (human peripheral blood neutrophile, recombinant human C5a 100 pmol/L, Fura 2-AM, read-out: IC50 value, inhibition of increase in intracellular Ca2+ concentration of C5a-stimulated neutrophile), 5 nM; in series [4] it was 100 nM. In addition, the “agonistic action (increase in intracellular Ca2+ induced by the compound)” value in series [3] (compound 10 μmol/L, human neutrophile) is reported as “not found”.

For `CC(C)c1ccc(N(Cc2ccc(Br)cc2)C(=O)Nc2c(C(C)C)cccc2C(C)C)cc1` [Example 53, N-[(4-bromophenyl)methyl]-N′-(2,6-diisopropylphenyl)-N-(4-isopropylphenyl)urea], the “% inhibition of decrease in neutrophiles in peripheral blood” value in series [5] came out at 74%.

Take `CC(C)c1cccc(C(C)C)c1NC(=O)N(Cc1ccc(N(C)C)cc1)c1ccc(F)cc1` [Example 1, N′-(2,6-diisopropylphenyl)-N-[(4-dimethylaminophenyl)methyl]-N-(4-fluorophenyl)urea]: the melting point was 124 to 125 °C. As to `CC(C)c1ccc(N(Cc2ccc(N(C)C)cc2)C(=O)Nc2c(C(C)C)cccc2C(C)C)cc1` (as salt: fumarate) [Example 34, N′-(2,6-diisopropylphenyl)-N-[(4-dimethylaminophenyl)methyl]-N-(4-isopropylphenyl)urea 9/10 fumarate], the melting point fell in the range of 203 to 206 °C.

For the origin of these results see patent publication US7105567B2, “3-substituted urea derivatives and medicinal use thereof” (Mitsubishi Pharma Corporation, priority 2000, dated 2006).
